Patent US8338565B2, “Macrocyclic compounds for inhibition of tumor necrosis factor alpha” (Ensemble Therapeutics Corporation, priority 2008, dated 2012)
Numbered stars: 1 amine (or outer) side, 2 acyl side, 3 side chain; on linkers, the order of the positions; unused ones are H or OH. Bridge positions count the residues as written; N and C are the ends. Square brackets hold non-standard residues; d marks the D form. Peptide text beside a SMILES is read from it. * marks the point of attachment. Tartaroyl(2R,3R-(OAc)2) = CC(=O)O[C@@H](C(=O)[*:1])[C@@H](OC(C)=O)C(=O)[*:2]; Phe(4-CF3) = N[C@@H](Cc1ccc(C(F)(F)F)cc1)C(=O)O; dPhe(4-CF3) = N[C@H](Cc1ccc(C(F)(F)F)cc1)C(=O)O; Phe(4-COOH) = N[C@@H](Cc1ccc(C(=O)O)cc1)C(=O)O; Phe(2,4-Cl2) = N[C@@H](Cc1ccc(Cl)cc1Cl)C(=O)O; dPhe(3,4-F2) = N[C@H](Cc1ccc(F)c(F)c1)C(=O)O; Bip = N[C@@H](Cc1ccc(-c2ccccc2)cc1)C(=O)O; dBip = N[C@H](Cc1ccc(-c2ccccc2)cc1)C(=O)O; dPhe(4-NH2) = Nc1ccc(C[C@@H](N)C(=O)O)cc1; Phe(4-NH2) = Nc1ccc(C[C@H](N)C(=O)O)cc1; Lys(Me2) = CN(C)CCCC[C@H](N)C(=O)O; d(hPhe) = N[C@H](CCc1ccccc1)C(=O)O; hPhe = N[C@@H](CCc1ccccc1)C(=O)O; 2Thi = N[C@@H](Cc1cccs1)C(=O)O; d2Thi = N[C@H](Cc1cccs1)C(=O)O; NH(CH2)2O(CH2)2NH2 = NCCOCCN*; Suc = O=C(CCC(=O)[*:2])[*:1]; Nicotinoyl = O=C(c1cccnc1)*; βAla = NCCC(=O)O

Target: T1, TNFα / TNFα receptor (TNFα R1/Fc) (Homo sapiens, UniProt P01375)
T1 construct: purchased R&D Systems
T1 sequence (P01375 77-233 limits assumed, species assumed): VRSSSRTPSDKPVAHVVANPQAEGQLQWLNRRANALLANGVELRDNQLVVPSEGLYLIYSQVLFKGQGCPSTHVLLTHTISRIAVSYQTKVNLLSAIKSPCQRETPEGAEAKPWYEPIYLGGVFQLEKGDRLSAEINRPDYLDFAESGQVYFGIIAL
Assay: Inhibition of binding of TNFα to the TNFα receptor (plate ELISA competition)
Settings: Table 2; read-out: Activity (IC50, inhibition of TNFα binding to TNFα R1/Fc)
In short: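 Plates were coated with TNFα at 15 nM. Test compound and 8.33 nM receptor-Fc (PBST, 2% DMSO) were first mixed in solution for 30 min at room temperature, then transferred to the plates for another 30 min. Competition was read by absorbance at 450 nm after HRP anti-human IgG Fc detection with TMB.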

IC50 | SMILES
> 100 µM | O=C1COc2ccc(cc2)C[C@@H](C(=O)O)NC(=O)[C@@H](Cc2cccc(C(F)(F)F)c2)NC(=O)[C@H](Cc2ccc(-c3ccccc3)cc2)NC(=O)[C@@H](Cc2cccs2)N1 [Compound 533]
> 100 µM | O=C1COc2ccc(cc2)C[C@@H](C(=O)O)NC(=O)[C@@H]2CCCN2C(=O)[C@@H](Cc2ccc(-c3ccccc3)cc2)NC(=O)[C@H](Cc2cccs2)N1 [Compound 250]
10 to 30 µM | O=C1COc2ccc(cc2)C[C@@H](C(=O)O)NC(=O)[C@@H](CCc2ccccc2)NC(=O)[C@H](Cc2ccc(-c3ccccc3)cc2)NC(=O)[C@@H](Cc2ccc(F)cc2)N1 [Compound 519]
30 to 100 µM | O=C1CCC(=O)N[C@H](Cc2ccc(F)c(F)c2)C(=O)N[C@@H](Cc2ccc(C(F)(F)F)cc2)C(=O)N[C@H](Cc2ccccc2)C(=O)N[C@H](C(=O)O)Cc2ccc(cc2)N1 [Compound 135] ([dPhe(3,4-F2)][Phe(4-CF3)][dF][Phe(4-NH2)]-OH; linker N-4 via Suc)
> 100 µM | O=C1CCC(=O)N[C@H](Cc2ccccc2)C(=O)N[C@@H](Cc2ccc(-c3ccccc3)cc2)C(=O)N[C@H](CCc2ccccc2)C(=O)N[C@H](C(=O)N[C@@H](Cc2ccccc2)C(=O)O)Cc2ccc(cc2)N1 [Compound 456] ([dF][Bip][d(hPhe)][Phe(4-NH2)]F-OH; linker N-4 via Suc)
30 to 100 µM | O=C1COc2ccc(cc2)C[C@@H](C(=O)O)NC(=O)[C@H](CCc2ccccc2)NC(=O)[C@@H](Cc2ccc(-c3ccncc3)cc2)NC(=O)[C@H](Cc2ccccn2)N1 [Compound 661]
> 100 µM | O=C1CCNC(=O)c2ccc(cc2)C[C@@H](C(=O)O)NC(=O)[C@H](Cc2ccccc2)NC(=O)[C@H](Cc2ccc(-c3ccccc3)cc2)NC(=O)[C@H](CCc2ccccc2)N1 [Compound 463] ([βAla][hPhe][Bip]F[Phe(4-COOH)]-OH; lactam N-5)
> 100 µM | O=C1COc2ccc(cc2)C[C@@H](C(=O)O)NC(=O)[C@H](Cc2ccc(O)cc2)NC(=O)[C@@H](Cc2ccc(-c3ccccc3)cc2)NC(=O)[C@H](Cc2cccs2)N1 [Compound 427]
> 100 µM | CN(C)CCCC[C@@H]1NC(=O)[C@@H](Cc2cccs2)NC(=O)CCC(=O)Nc2ccc(cc2)C[C@@H](C(=O)O)NC(=O)[C@@H](Cc2ccccc2)NC1=O [Compound 203] ([d2Thi][Lys(Me2)][dF][Phe(4-NH2)]-OH; linker N-4 via Suc)
< 10 µM | O=C1COc2ccc(cc2)C[C@@H](C(=O)O)NC(=O)[C@H](Cc2ccccc2)NC(=O)[C@H](Cc2cccc(C(F)(F)F)c2)NC(=O)[C@H](Cc2cccs2)N1 [Compound 400]
< 10 µM | O=C1COc2ccc(cc2)C[C@@H](C(=O)O)NC(=O)[C@@H](CCc2ccccc2)NC(=O)C(c2ccc(Br)cc2)NC(=O)[C@@H](Cc2cccs2)N1 (stereo partly drawn) [Compound 525]
> 100 µM | O=C1CCC(=O)N[C@H](Cc2cccs2)C(=O)N[C@@H](CCCCNC(=O)c2cccnc2)C(=O)N[C@H](Cc2ccccc2)C(=O)N[C@H](C(=O)O)Cc2ccc(cc2)N1 [Compound 96] ([d2Thi]K(Nicotinoyl)[dF][Phe(4-NH2)]-OH; linker N-4 via Suc)
> 100 µM | O=C1CCC(=O)N[C@H](Cc2cccs2)C(=O)N[C@H](Cc2ccc(-c3ccccc3)cc2)C(=O)N[C@H](Cc2ccccc2)C(=O)N[C@@H](C(=O)O)Cc2ccc(cc2)N1 [Compound 498] ([d2Thi][dBip][dF][dPhe(4-NH2)]-OH; linker N-4 via Suc)
> 100 µM | O=C1CCC(=O)N[C@H](Cc2cccs2)C(=O)N[C@@H](Cc2ccc(-c3ccccc3)cc2)C(=O)N[C@@H](CO)C(=O)N[C@H](C(=O)O)Cc2ccc(cc2)N1 [Compound 60] ([d2Thi][Bip]S[Phe(4-NH2)]-OH; linker N-4 via Suc)
> 100 µM | CC(C)(NC(=O)[C@@H]1Cc2ccc(cc2)NC(=O)[C@H](O)[C@@H](O)C(=O)N[C@H](Cc2cccs2)C(=O)N[C@@H](Cc2ccc(-c3ccccc3)cc2)C(=O)N[C@H](Cc2ccccc2)C(=O)N1)C(=O)O [Compound 176]
> 100 µM | O=C1CCC(=O)N[C@H](CCc2ccccc2)C(=O)N[C@@H](Cc2ccc(-c3cccc(O)c3)cc2)C(=O)N[C@H](Cc2ccccc2)C(=O)N[C@H](C(=O)O)Cc2ccc(cc2)N1 [Compound 169]
> 100 µM | CC(C)C[C@@H]1NC(=O)[C@H](Cc2ccc(-c3ccccc3)cc2)NC(=O)[C@@H](Cc2cccs2)NC(=O)CCC(=O)Nc2ccc(cc2)C[C@@H](C(=O)O)NC1=O [Compound 54] ([d2Thi][Bip]L[Phe(4-NH2)]-OH; linker N-4 via Suc)
< 10 µM | NCCOCCNC(=O)[C@@H]1Cc2ccc(cc2)NC(=O)CCC(=O)N[C@H](Cc2cccs2)C(=O)N[C@@H](Cc2ccc(-c3ccccc3)cc2)C(=O)N[C@H](Cc2ccccc2)C(=O)N1 [Compound 193] ([d2Thi][Bip][dF][Phe(4-NH2)]-{NH(CH2)2O(CH2)2NH2}; linker N-4 via Suc)
> 100 µM | O=C1CCC(=O)N[C@H](CCc2ccccc2)C(=O)N[C@@H](Cc2ccc(-c3cccc(Cl)c3)cc2)C(=O)N[C@H](Cc2ccccc2)C(=O)N[C@H](C(=O)O)Cc2ccc(cc2)N1 [Compound 171]
> 100 µM | O=C1CCC(=O)N[C@H](Cc2cccs2)C(=O)N[C@@H](Cc2ccc(-c3ccccc3)cc2)C(=O)N[C@H](Cc2ccc(C(F)(F)F)cc2)C(=O)N[C@H](C(=O)O)Cc2ccc(cc2)N1 [Compound 79] ([d2Thi][Bip][dPhe(4-CF3)][Phe(4-NH2)]-OH; linker N-4 via Suc)
30 to 100 µM | CC(=O)O[C@H]1C(=O)Nc2ccc(cc2)C[C@H](C(=O)O)NC(=O)[C@@H](CCc2ccccc2)NC(=O)[C@H](Cc2ccc(Cl)cc2Cl)NC(=O)[C@@H](Cc2cccs2)NC(=O)[C@@H]1OC(C)=O [Compound 221] ([d2Thi][Phe(2,4-Cl2)][d(hPhe)][dPhe(4-NH2)]-OH; linker N-4 via Tartaroyl(2R,3R-(OAc)2))
> 100 µM | O=C1COc2ccc(cc2)C[C@@H](C(=O)O)NC(=O)[C@H](CCc2ccccc2)NC(=O)[C@@H](Cc2ccc(-c3ccccn3)cc2)NC(=O)[C@H](Cc2cccnc2)N1 [Compound 663]
> 100 µM | C[C@H]1NC(=O)[C@H](Cc2ccc(-c3ccccc3)cc2)NC(=O)[C@@H](Cc2cccs2)NC(=O)CCC(=O)Nc2ccc(cc2)C[C@@H](C(=O)O)NC1=O [Compound 44] ([d2Thi][Bip][dA][Phe(4-NH2)]-OH; linker N-4 via Suc)
< 10 µM | CC(=O)O[C@H]1C(=O)Nc2ccc(cc2)C[C@@H](C(=O)N[C@@H](Cc2ccccc2)C(=O)O)NC(=O)[C@H](CCc2ccccc2)NC(=O)[C@@H](Cc2ccc(-c3ccccc3)cc2)NC(=O)[C@H](Cc2cccs2)NC(=O)[C@@H]1OC(C)=O [Compound 412] ([2Thi][dBip][hPhe][Phe(4-NH2)]F-OH; linker N-4 via Tartaroyl(2R,3R-(OAc)2))
> 100 µM | O=C1N[C@@H](C(=O)O)Cc2ccc(cc2)NC(=O)[C@H](O)[C@@H](O)C(=O)N[C@@H](Cc2cccs2)C(=O)N[C@H](Cc2ccc(-c3ccccc3)cc2)C(=O)N[C@H]1Cc1ccccc1 [Compound 278]
< 10 µM | CC(C)(NC(=O)[C@@H]1Cc2ccc(cc2)OCC(=O)N[C@@H](Cc2cccs2)C(=O)N[C@H](Cc2ccc(-c3ccccc3)cc2)C(=O)N[C@@H](CCc2ccccc2)C(=O)N1)C(=O)O [Compound 477]
> 100 µM | O=C1COc2ccc(cc2)C[C@@H](C(=O)O)NC(=O)[C@@H](C/C=C/c2ccccc2)NC(=O)[C@H](Cc2ccc(-c3ccccc3)cc2)NC(=O)[C@@H](Cc2cccs2)N1 [Compound 537]
